Assay results reported in patent US8722849B2, “Polypeptides” (Novo Nordisk A/S, priority 2011, dated 2014).
Starred links: 1 amine or outer side, 2 acyl side, 3 side chain; linkers in the order of their positions; H or OH if unused. Positions of bridges follow the written chain, without caps; N, C: chain ends. Residues, ends and D or L forms follow the SMILES beside them. *: point of attachment. C20 diacid = O=C(O)CCCCCCCCCCCCCCCCCCC(=O)*; γGlu = O=C(O)[C@H](CCC(=O)[*:2])N[*:1]

Assays:
Type in all cases: cell-based
[1] = molecular target: T1, human calcitonin receptor (Homo sapiens, UniProt P30988); test: Assay (II)a functional CRE-luciferase assay, human calcitonin receptor; details: Table 7; human calcitonin (CTa) receptor
T1 construct: expressed in transfected cells; host or cells: BHK570
T1 sequence (P30988 25-474): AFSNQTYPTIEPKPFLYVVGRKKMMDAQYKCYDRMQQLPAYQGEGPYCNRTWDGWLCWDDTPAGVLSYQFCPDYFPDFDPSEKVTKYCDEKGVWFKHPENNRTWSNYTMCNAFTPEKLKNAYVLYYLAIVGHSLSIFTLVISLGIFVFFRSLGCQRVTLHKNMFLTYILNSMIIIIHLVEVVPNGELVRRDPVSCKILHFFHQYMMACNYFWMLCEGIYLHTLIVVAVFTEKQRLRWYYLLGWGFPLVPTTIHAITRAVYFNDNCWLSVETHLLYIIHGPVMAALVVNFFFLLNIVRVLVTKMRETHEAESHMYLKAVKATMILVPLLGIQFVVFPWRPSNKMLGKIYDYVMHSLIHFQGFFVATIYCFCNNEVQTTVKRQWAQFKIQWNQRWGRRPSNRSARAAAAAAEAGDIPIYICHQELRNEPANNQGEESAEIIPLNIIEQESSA

[2] = molecular target: T2, rat calcitonin (a) receptor (Rattus norvegicus, UniProt P32214); test: Assay (II)b functional cAMP FlashPlate assay, rat calcitonin receptor; details: Table 11; read-out: CTa receptor rat EC50
T2 construct: expressed in transfected cells; host or cells: BHK tk'ts 13
T2 sequence (P32214 25-479 isoform P32214-2 limits assumed): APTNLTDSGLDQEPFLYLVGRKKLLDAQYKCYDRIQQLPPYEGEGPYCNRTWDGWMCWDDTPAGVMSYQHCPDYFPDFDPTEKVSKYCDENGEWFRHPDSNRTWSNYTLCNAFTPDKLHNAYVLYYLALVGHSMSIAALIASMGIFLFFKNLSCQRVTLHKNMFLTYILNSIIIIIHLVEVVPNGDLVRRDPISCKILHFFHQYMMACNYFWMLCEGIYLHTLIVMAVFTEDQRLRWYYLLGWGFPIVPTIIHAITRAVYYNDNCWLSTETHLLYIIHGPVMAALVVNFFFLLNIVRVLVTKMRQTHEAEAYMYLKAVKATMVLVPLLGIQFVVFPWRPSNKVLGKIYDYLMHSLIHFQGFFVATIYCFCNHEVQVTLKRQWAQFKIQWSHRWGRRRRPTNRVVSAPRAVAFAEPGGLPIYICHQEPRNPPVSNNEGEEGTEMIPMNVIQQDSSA
Procedure, shortened: (§1)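 cAMP accumulation in transiently transfected BHK tk'ts 13 cells, 100.000 cells/well, expressing rat calcitonin(a) receptor or its RAMP3 co-expression form (amylin 3(a)): 30 min stimulation with IBMX, 24 hours post-transfection. Readout by competition of cellular versus radiolabelled cAMP in FlashPlates, scintillation counted after 3 h.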

[3] = molecular target: T3, rat amylin 3(a) receptor (rat calcitonin(a) receptor + rat RAMP3) (Rattus norvegicus, UniProt P32214+Q9JJ73); test: Assay (II)b functional cAMP FlashPlate assay, rat amylin receptor; details: Table 11
T3 construct: expressed in transfected cells; host or cells: BHK tk'ts 13
T3 sequence (P32214 25-479 isoform P32214-2 limits assumed): T2 sequence (P32214 25-479 isoform P32214-2 limits assumed)
T3 sequence (Q9JJ73 23-147 partner): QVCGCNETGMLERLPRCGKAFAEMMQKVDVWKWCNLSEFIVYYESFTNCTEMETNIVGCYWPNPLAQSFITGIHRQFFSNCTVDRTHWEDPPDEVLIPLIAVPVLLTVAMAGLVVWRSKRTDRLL
Procedure, shortened: as §1

Structure (SMILES) | EC50 [1] | EC50 [2] | EC50 [3]
CC[C@H](C)[C@H](NC(=O)[C@@H]1CCCN1C(=O)CNC(=O)[C@H](Cc1ccccc1)NC(=O)[C@H](CC(N)=O)NC(=O)[C@H](CC(N)=O)NC(=O)[C@H](CO)NC(=O)[C@H](CO)NC(=O)[C@H](Cc1c[nH]cn1)NC(=O)[C@H](CCCNC(=N)N)NC(=O)[C@H](CC(C)C)NC(=O)[C@H](Cc1ccccc1)NC(=O)[C@H](CCC(=O)O)NC(=O)[C@H](C)NC(=O)[C@H](CC(C)C)NC(=O)[C@H](CCCNC(=N)N)NC(=O)[C@H](CCC(N)=O)NC(=O)[C@@H](NC(=O)[C@H](C)NC(=O)[C@@H]1CSSC[C@H](NC(=O)CNC(=O)CC[C@H](NC(=O)CCCCCCCCCCCCCCCCCCC(=O)O)C(=O)O)C(=O)N[C@@H](CC(N)=O)C(=O)N[C@@H]([C@@H](C)O)C(=O)N[C@@H](C)C(=O)N[C@@H]([C@@H](C)O)C(=O)N1)[C@@H](C)O)C(=O)N[C@@H](CC(C)C)C(=O)N1CCC[C@H]1C(=O)N1CCC[C@H]1C(=O)N[C@H](C(=O)N[C@@H](CC(N)=O)C(=O)N[C@H](C(=O)NCC(=O)N[C@@H](CO)C(=O)N[C@@H](CC(N)=O)C(=O)N[C@H](C(=O)N1CCC[C@H]1C(N)=O)[C@@H](C)O)C(C)C)[C@@H](C)O [Example 88, N-alpha-[(S)-4-Carboxy-4-(19-carboxynonadecanoylamino)butyryl]-[Gly1,Glu14,Arg17,Pro37]-pramlintide] ({C20 diacid-γGlu}-GCNTATCATQRLAEFLRHSSNNFGPILPPTNVGSNTP-NH2; disulfide 2-7 (inferred); C-terminus assumed) | 0.055 nM | 0.37 nM | 0.3 nM
CC[C@H](C)[C@H](NC(=O)[C@@H]1CCCN1C(=O)CNC(=O)[C@H](Cc1ccccc1)NC(=O)[C@H](CC(N)=O)NC(=O)[C@H](CC(N)=O)NC(=O)[C@H](CO)NC(=O)[C@H](CO)NC(=O)[C@H](Cc1c[nH]cn1)NC(=O)[C@H](CCCNC(=N)N)NC(=O)[C@H](CC(C)C)NC(=O)[C@H](Cc1ccccc1)NC(=O)[C@H](CCC(=O)O)NC(=O)[C@H](C)NC(=O)[C@H](CC(C)C)NC(=O)[C@H](CCCNC(=N)N)NC(=O)[C@H](CCC(N)=O)NC(=O)[C@@H](NC(=O)[C@H](C)NC(=O)[C@@H]1CSSC[C@H](NC(=O)[C@H](Cc2c[nH]cn2)NC(=O)CNC(=O)CC[C@H](NC(=O)CCCCCCCCCCCCCCCCCCC(=O)O)C(=O)O)C(=O)N[C@@H](CC(N)=O)C(=O)N[C@@H]([C@@H](C)O)C(=O)N[C@@H](C)C(=O)N[C@@H]([C@@H](C)O)C(=O)N1)[C@@H](C)O)C(=O)N[C@@H](CC(C)C)C(=O)N1CCC[C@H]1C(=O)N1CCC[C@H]1C(=O)N[C@H](C(=O)N[C@@H](CC(N)=O)C(=O)N[C@H](C(=O)NCC(=O)N[C@@H](CO)C(=O)N[C@@H](CC(N)=O)C(=O)N[C@H](C(=O)N1CCC[C@H]1C(N)=O)[C@@H](C)O)C(C)C)[C@@H](C)O [Example 89, N-alpha-[(S)-4-Carboxy-4-(19-carboxynonadecanoylamino)butyryl]-Gly-[His1,Glu14,Arg17,Pro37]-pramlintide] ({C20 diacid-γGlu}-GHCNTATCATQRLAEFLRHSSNNFGPILPPTNVGSNTP-NH2; disulfide 3-8 (inferred)) | 0.0395 nM | 0.114 nM | 0.151 nM
CC[C@H](C)[C@H](NC(=O)[C@@H]1CCCN1C(=O)CNC(=O)[C@H](Cc1ccccc1)NC(=O)[C@H](CC(N)=O)NC(=O)[C@H](CC(N)=O)NC(=O)[C@H](CO)NC(=O)[C@H](CO)NC(=O)[C@H](Cc1c[nH]cn1)NC(=O)[C@H](CCCNC(=N)N)NC(=O)[C@H](CC(C)C)NC(=O)[C@H](Cc1ccccc1)NC(=O)[C@H](CCC(=O)O)NC(=O)[C@H](C)NC(=O)[C@H](CC(C)C)NC(=O)[C@H](CCCNC(=N)N)NC(=O)[C@H](CCC(N)=O)NC(=O)[C@@H](NC(=O)[C@H](C)NC(=O)[C@@H]1CSSC[C@H](NC(=O)[C@H](Cc2c[nH]cn2)NC(=O)CC[C@H](NC(=O)CCCCCCCCCCCCCCCCCCC(=O)O)C(=O)O)C(=O)N[C@@H](CC(N)=O)C(=O)N[C@@H]([C@@H](C)O)C(=O)N[C@@H](C)C(=O)N[C@@H]([C@@H](C)O)C(=O)N1)[C@@H](C)O)C(=O)N[C@@H](CC(C)C)C(=O)N1CCC[C@H]1C(=O)N1CCC[C@H]1C(=O)N[C@H](C(=O)N[C@@H](CC(N)=O)C(=O)N[C@H](C(=O)NCC(=O)N[C@@H](CO)C(=O)N[C@@H](CC(N)=O)C(=O)N[C@H](C(=O)N1CCC[C@H]1C(N)=O)[C@@H](C)O)C(C)C)[C@@H](C)O [Example 90, N-alpha-[(S)-4-Carboxy-4-(19-carboxynonadecanoylamino)butyryl]-[His1,Glu14,Arg17,Pro37]-pramlintide] ({C20 diacid-γGlu}-HCNTATCATQRLAEFLRHSSNNFGPILPPTNVGSNTP-NH2; disulfide 2-7 (inferred); C-terminus assumed) | 0.0475 nM | 0.128 nM | 0.217 nM
CC[C@H](C)[C@H](NC(=O)[C@@H]1CCCN1C(=O)CNC(=O)[C@H](Cc1ccccc1)NC(=O)[C@H](CC(N)=O)NC(=O)[C@H](CC(N)=O)NC(=O)[C@H](CO)NC(=O)[C@H](CO)NC(=O)[C@H](Cc1c[nH]cn1)NC(=O)[C@@H](NC(=O)[C@H](CC(C)C)NC(=O)[C@H](Cc1ccccc1)NC(=O)[C@H](CCC(=O)O)NC(=O)[C@H](C)NC(=O)[C@H](CC(C)C)NC(=O)[C@H](CCCNC(=N)N)NC(=O)[C@H](CCC(N)=O)NC(=O)[C@@H](NC(=O)[C@H](C)NC(=O)[C@@H]1CSSC[C@H](NC(=O)[C@H](CCCCN)NC(=O)CC[C@H](NC(=O)CCCCCCCCCCCCCCCCCCC(=O)O)C(=O)O)C(=O)N[C@@H](CC(N)=O)C(=O)N[C@@H]([C@@H](C)O)C(=O)N[C@@H](C)C(=O)N[C@@H]([C@@H](C)O)C(=O)N1)[C@@H](C)O)C(C)C)C(=O)N[C@@H](CC(C)C)C(=O)N1CCC[C@H]1C(=O)N1CCC[C@H]1C(=O)N[C@H](C(=O)N[C@@H](CC(N)=O)C(=O)N[C@H](C(=O)NCC(=O)N[C@@H](CO)C(=O)N[C@@H](Cc1c[nH]cn1)C(=O)N[C@H](C(=O)N[C@@H](Cc1ccc(O)cc1)C(N)=O)[C@@H](C)O)C(C)C)[C@@H](C)O [Example 93, N-alpha-[(S)-4-Carboxy-4-(19-carboxynonadecanoylamino)butyryl]-[Glu14,His35]-pramlintide] ({C20 diacid-γGlu}-KCNTATCATQRLAEFLVHSSNNFGPILPPTNVGSHTY-NH2; disulfide 2-7 (inferred); C-terminus assumed) | 0.18 nM | 0.215 nM | 0.138 nM
CC[C@H](C)[C@H](NC(=O)[C@@H]1CCCN1C(=O)CNC(=O)[C@H](Cc1ccccc1)NC(=O)[C@H](CC(N)=O)NC(=O)[C@H](CC(N)=O)NC(=O)[C@H](CO)NC(=O)[C@H](CO)NC(=O)[C@H](Cc1c[nH]cn1)NC(=O)[C@H](Cc1c[nH]cn1)NC(=O)[C@H](CC(C)C)NC(=O)[C@H](Cc1ccccc1)NC(=O)[C@H](CCC(=O)O)NC(=O)[C@H](C)NC(=O)[C@H](CC(C)C)NC(=O)[C@H](CCCNC(=N)N)NC(=O)[C@H](CCC(N)=O)NC(=O)[C@@H](NC(=O)[C@H](C)NC(=O)[C@@H]1CSSC[C@H](NC(=O)[C@H](CCCNC(=N)N)NC(=O)CC[C@H](NC(=O)CCCCCCCCCCCCCCCCCCC(=O)O)C(=O)O)C(=O)N[C@@H](CC(N)=O)C(=O)N[C@@H]([C@@H](C)O)C(=O)N[C@@H](C)C(=O)N[C@@H]([C@@H](C)O)C(=O)N1)[C@@H](C)O)C(=O)N[C@@H](CC(C)C)C(=O)N1CCC[C@H]1C(=O)N1CCC[C@H]1C(=O)N[C@H](C(=O)N[C@@H](CC(N)=O)C(=O)N[C@H](C(=O)NCC(=O)N[C@@H](CO)C(=O)N[C@@H](CC(N)=O)C(=O)N[C@H](C(=O)N1CCC[C@H]1C(N)=O)[C@@H](C)O)C(C)C)[C@@H](C)O [Example 96, N-alpha-[(S)-4-Carboxy-4-(19-carboxynonadecanoylamino)butyryl]-[Arg1,Glu14,His17,Pro37]-pramlintide] ({C20 diacid-γGlu}-RCNTATCATQRLAEFLHHSSNNFGPILPPTNVGSNTP-NH2; disulfide 2-7 (inferred)) | 0.055 nM | 0.058 nM | 0.088 nM
